ChEMBL document CHEMBL1125278, “Novel cerebroprotective agents with central nervous system stimulating activity. 2. Synthesis and pharmacology of the 1-(acylamino)-7-hydroxyindan derivatives” (1991)

Columns and labels:
Assay type in all cases: functional
[1] = tested on: Mus musculus; assay: Time of recovery of righting reflux (RRT) in seconds was measured after iv administration of 0.625 mg/kg in mice for the promotional effect on recovery from coma.
[2] = tested on: Mus musculus; assay: Time of recovery of righting reflux (RRT) in seconds was measured after iv administration of 1.25 mg/kg in mice for the promotional effect on recovery from coma.
[3] = tested on: Mus musculus; assay: Time of recovery of righting reflux (RRT) in seconds was measured after iv administration of 2.5 mg/kg in mice for the promotional effect on recovery from coma.
[4] = tested on: Mus musculus; assay: Antihypoxic effect by the ratio of survival time (SVT) of test mice to that of control group at a dose of 0.3 mg/kg administered intraperitoneally.; conditions: route intraperitoneal
[5] = tested on: Mus musculus; assay: Antihypoxic effect by the ratio of survival time (SVT) of test mice to that of control group at a dose of 1 mg/kg administered intraperitoneally.; conditions: route intraperitoneal
[6] = tested on: Mus musculus; assay: Antihypoxic effect tested by the ratio of survival time (SVT) of test mice to that of control group, dosed intraperitoneally at 30 mg/kg; conditions: route intraperitoneal
[7] = tested on: Mus musculus; assay: Antihypoxic effect by the ratio of survival time (SVT) of test mice to that of control group at a dose of 3 mg/kg administered intraperitoneally.; conditions: route intraperitoneal
[8] = tested on: Mus musculus; assay: Time of recovery of spontaneous movement (SMT) in seconds was measured after iv administration of 0.625 mg/kg in mice for the promotional effect on recovery from coma.
[9] = tested on: Mus musculus; assay: Time of recovery of spontaneous movement (SMT) in seconds was measured after iv administration of 1.25 mg/kg in mice for the promotional effect on recovery from coma.
[10] = tested on: Mus musculus; assay: Time of recovery of spontaneous movement (SMT) in seconds was measured after iv administration of 2.5 mg/kg in mice for the promotional effect on recovery from coma.
[11] = tested on: Mus musculus; assay: Compound was tested for the anesthetic effect and the sleeping time (ST) was recorded at a dose of 0.3 mg/kg administered intraperitoneally.; conditions: route intraperitoneal
[12] = tested on: Mus musculus; assay: Compound was tested for the anesthetic effect and the sleeping time (ST) was recorded at a dose of 1 mg/kg administered intraperitoneally.; conditions: route intraperitoneal
[13] = tested on: Mus musculus; assay: Compound was tested for the anesthetic effect and the sleeping time (ST) was recorded at a dose of 3 mg/kg administered intraperitoneally.; conditions: route intraperitoneal

Compound: NC(=O)[C@@H]1CCCN1C(=O)[C@H](Cc1c[nH]cn1)NC(=O)[C@@H]1CCC(=O)N1 [PROTIRELIN]
- RRT [1]: 100.1 s
- RRT [2]: 34.1 s
- RRT [3]: 40.8 s
- SVT [4]: 83.8%
- SVT [5]: 47.1%
- SVT [6]: 43.4%
- SVT [7]: 43.4%
- SMT [8]: 118.2 s
- SMT [9]: 48.2 s
- SMT [10]: 40.9 s
- ST [11]: 83.1 s
- ST [12]: 70.7 s
- ST [13]: 73.2 s
